Values joined by “and” are separate entries in the source; they are usually repeats but may differ in a detail not shown here. Equal values may be shown once.
What was measured:
Test in all cases: MIC, 25 ocular isolates, broth microdilution (Example 8)
Type in all cases: cell-based
[1] = tested on: Staphylococcus aureus fluoroquinolone-susceptible; set-up: Mean MIC (Descriptive Statistics) / Minimum MIC (Descriptive Statistics) / Maximum MIC (Descriptive Statistics): unit: µg/mL; details: 25 isolates
Method: (§1) • Mueller-Hinton Broth in tubes was inoculated with 25 ocular isolates of Staphylococcus aureus fluoroquinolone-susceptible, Staphylococcus aureus fluoroquinolone-resistant, Staphylococcus epidermidis (Coagulase-negative Staphylococcus) fluoroquinolone-susceptible, Staphylococcus epidermidis (Coagulase-negative Staphylococcus) fluoroquinolone-resistant, Pseudomonas aeruginosa and Serratia marcescens, plus two controls (Staphylococcus aureus and E. coli) and incubated at 37° C. overnight on a shaker set at 250 rpm.
(§2) On the day of testing, a 640 μg/ml (1280 μg/ml for Serratia marcescens and Pseudomonas aeruginosa) concentration was prepared from a 1% stock solution in 0.01% acetic acid, 0.2% BSA in polypropylene tubes.
(§3) Serial doubling dilutions in 0.01% acetic acid, 0.2% BSA in 96 well polypropylene plates, which are used as reservoirs for the inoculation of the test plates, were carried out to obtain serial dilutions of test agents at 10 times the required test concentrations: 640, 320, 160, 80, 40, 20, 10, 5, 2.5, 1.25, and 0.625 μg/ml (1280, 640, 320, 160, 80, 40, 20, 10, 5, 2.5, and 1.25 μg/ml for Serratia marcescens and Pseudomonas aeruginosa).
(§4) Ten μl of diluted 10×test agents was added to each well of one row of the 96 well polypropylene plates from column 2 to column 12 (column 1 is a control for bacteria alone, with no peptide). Test agent concentrations in columns 2-12 were as follows: 64, 32, 16, 8, 4, 2, 1, 0.5, 0.25, 0.125, and 0.0625 μg/ml (128, 64, 32, 16, 8, 4, 2, 1, 0.5, 0.25, and 0.125 μg/ml for Serratia marcescens and Pseudomonas aeruginosa). The same peptide was in each of the 8 rows. One plate contained dilutions of one test agent and 8 bacterial isolates.
(§5) On the day of testing, the overnight bacterial broth cultures of Staphylococcus aureus fluoroquinolone-susceptible, Staphylococcus aureus fluoroquinolone-resistant, Staphylococcus epidermidis (Coagulase-negative Staphylococcus) fluoroquinolone-susceptible, Staphylococcus epidermidis (Coagulase-negative Staphylococcus) fluoroquinolone-resistant, Serratia marcescens, and Pseudomonas aeruginosa, plus two controls (Staphylococcus aureus and E. coli) were diluted in 5 ml of trypticase soy broth to yield turbidity equal to a 0.5 McFarland standard. The final inoculum for MIC testing for Staphylococcus aureus fluoroquinolone-susceptible, Staphylococcus aureus fluoroquinolone-resistant, Staphylococcus epidermidis (Coagulase-negative Staphylococcus) fluoroquinolone-susceptible, Staphylococcus epidermidis (Coagulase-negative Staphylococcus) fluoroquinolone-resistant, Serratia marcescens, and Pseudomonas aeruginosa was achieved by placing 0.05 ml of the turbidity adjusted sample to 5 ml of Mueller-Hinton broth.
(§6) Ninety μl of the bacterial suspensions was dispensed in each well from column 1 to column 12. Each bacterial isolate was placed in one row of a 96 well polypropylene plate containing the test agents. The plates were placed on shaker at 15 minutes at room temperature, and then incubated at 37° C. overnight. MICs were determined visually as the lowest concentration of drug that inhibits visible bacterial growth.

Pseudomonas aeruginosa = details: 25 isolates; >128 was Replaced with 256
Method: as §1, §2, §3, §4, §5, §6

Serratia marcescens = details: 25 isolates; >128 was Replaced with 256
Method: as §1, §2, §3, §4, §5, §6

[2] = tested on: Staphylococcus aureus fluoroquinolone-resistant; details: 25 isolates
Method: as §1, §2, §3, §4, §5, §6

[3] = tested on: Staphylococcus epidermidis (Coagulase-negative Staphylococcus) fluoroquinolone-resistant; details: 25 isolates; <0.0625 was Replaced with 0.03125
Method: as §1, §2, §3, §4, §5, §6

[4] = tested on: Staphylococcus epidermidis (Coagulase-negative Staphylococcus) fluoroquinolone-susceptible; details: 25 isolates; <0.0625 was Replaced with 0.03125
Method: as §1, §2, §3, §4, §5, §6

[5] = tested on: Moraxella species (including Moraxella catarrhalis); details: for Minimum MIC / Maximum MIC / Mean MIC: descriptive statistics, n=25; for Maximum MIC / Mean MIC / Median MIC: >64 replaced with 128; for Median MIC: n=25 isolates
Method: (§7) Mueller-Hinton Broth supplemented with 2% lysed horse blood in tubes was inoculated with 25 ocular isolates of Streptococcus pneumoniae, Streptococcus viridans group, and Moraxella species (including Moraxella catarrhalis) plus two controls (Staphylococcus aureus and E. coli) and incubated at 37° C. overnight. Additionally, Mueller-Hinton Broth in tubes was inoculated with two controls (Staphylococcus aureus and E. coli) and incubated at 37° C. overnight on a shaker set at 250 rpm.
as §2, §3, §4
(§8) On the day of testing, the overnight bacterial broth cultures of Streptococcus pneumoniae, Streptococcus viridans and Moraxella species (including Moraxella catarrhalis) plus two controls (Staphylococcus aureus and E. coli) were diluted in 5 ml of trypticase soy broth to yield turbidity equal to a 0.5 McFarland standard. The final inoculum for MIC testing for Streptococcus pneumoniae, Streptococcus viridans and Moraxella species (including Moraxella catarrhalis) was achieved by placing 0.1 ml of the turbidity adjusted sample to 5 ml of Mueller-Hinton broth containing 2% lysed horse red blood cells.
as §6

Streptococcus pneumoniae = details: 25 isolates; >64 was Replaced with 128
Method: as §7, §2, §3, §4, §8, §6

[6] = tested on: Streptococcus viridans group; details: 25 isolates; >64 was Replaced with 128
Method: as §7, §2, §3, §4, §8, §6

Haemophilus influenzae = details: for Minimum MIC / Maximum MIC / Mean MIC: descriptive statistics, n=25; for Maximum MIC / Mean MIC / Median MIC: >64 replaced with 128; for Median MIC: n=25 isolates
Method: HTM (Haemophilus Test Medium) in tubes was inoculated with 25 ocular isolates of Haemophilus influenzae plus two controls (Staphylococcus aureus and E. coli) and incubated at 37° C. overnight. Additionally, Mueller-Hinton Broth in tubes was inoculated with two controls (Staphylococcus aureus and E. coli) and incubated at 37° C. overnight on a shaker set at 250 rpm.
as §2, §3, §4
On the day of testing, the overnight bacterial broth cultures of Haemophilus species was diluted in 5 ml of trypticase soy broth to yield turbidity equal to a 0.5 McFarland standard. The final inoculum for MIC testing for Haemophilus species was achieved by placing 0.1 ml of the turbidity adjusted sample to 5 ml of HTM medium.
as §6

N=C(N)NCCCCC(=O)Nc1cc(C(F)(F)F)cc(NC(=O)c2cnc(C(=O)Nc3cc(C(F)(F)F)cc(NC(=O)CCCCNC(=N)N)c3SCCN)cn2)c1SCCN [Olig 5]
Maximum MIC (Descriptive Statistics) [1]: 0.5000 | Mean MIC (Descriptive Statistics) [1]: 0.2450 | Median MIC (Descriptive Statistics / Mann-Whitney) [1]: 0.2500 | Minimum MIC (Descriptive Statistics) [1]: 0.1250 | Maximum MIC (Descriptive Statistics) (Pseudomonas aeruginosa): 256 µg/mL | Mean MIC (Descriptive Statistics) (Pseudomonas aeruginosa): 85.9 µg/mL | Median MIC (Descriptive Statistics / Mann-Whitney) (Pseudomonas aeruginosa): 64.0 | Minimum MIC (Descriptive Statistics) (Pseudomonas aeruginosa): 4 µg/mL | Maximum MIC (Descriptive Statistics) (Serratia marcescens): 256 µg/mL | Mean MIC (Descriptive Statistics) (Serratia marcescens): 233 µg/mL | Median MIC (Descriptive Statistics / Mann-Whitney) (Serratia marcescens): 256.0 | Minimum MIC (Descriptive Statistics) (Serratia marcescens): 8 µg/mL | Maximum MIC (Descriptive Statistics) [2]: 0.5000 | Mean MIC (Descriptive Statistics) [2]: 0.2900 | Median MIC (Descriptive Statistics / Mann-Whitney) [2]: 0.2500 | Minimum MIC (Descriptive Statistics) [2]: 0.1250 | Maximum MIC (Descriptive Statistics) [3]: 0.5000 | Mean MIC (Descriptive Statistics) [3]: 0.1475 | Median MIC (Descriptive Statistics / Mann-Whitney) [3]: 0.125 | Minimum MIC (Descriptive Statistics) [3]: 0.0313 | Maximum MIC (Descriptive Statistics) [4]: 0.2500 | Mean MIC (Descriptive Statistics) [4]: 0.1375 | Median MIC (Descriptive Statistics / Mann-Whitney) [4]: 0.125 | Minimum MIC (Descriptive Statistics) [4]: 0.0313 | Minimum MIC [5]: 0.13 µg/mL | Maximum MIC [5]: 128.00 µg/mL | Mean MIC [5]: 13.26 µg/mL | Median MIC [5]: 0.50 µg/mL | Maximum MIC (Descriptive Statistics) (Streptococcus pneumoniae): 128 µg/mL | Mean MIC (Descriptive Statistics) (Streptococcus pneumoniae): 10.6 µg/mL | Median MIC (Descriptive Statistics / Mann-Whitney) (Streptococcus pneumoniae): 4.00 | Minimum MIC (Descriptive Statistics) (Streptococcus pneumoniae): 0.5 µg/mL | Maximum MIC (Descriptive Statistics) [6]: 128 µg/mL | Mean MIC (Descriptive Statistics) [6]: 36.8 µg/mL | Median MIC (Descriptive Statistics / Mann-Whitney) [6]: 16.00 | Minimum MIC (Descriptive Statistics) [6]: 0.5 µg/mL | Minimum MIC (Haemophilus influenzae): 2.0 µg/mL | Maximum MIC (Haemophilus influenzae): 128.0 µg/mL | Mean MIC (Haemophilus influenzae): 48.6 µg/mL | Median MIC (Haemophilus influenzae): 16.0 µg/mL and 16.00 µg/mL

N=C(N)NCCCCC(=O)Nc1cc(C(F)(F)F)cc(NC(=O)c2cc(C(=O)Nc3cc(C(F)(F)F)cc(NC(=O)CCCCNC(=N)N)c3O[C@@H]3CCNC3)ncn2)c1O[C@@H]1CCNC1 [Olig 4]
Maximum MIC (Descriptive Statistics) [1]: 0.5000 | Mean MIC (Descriptive Statistics) [1]: 0.2850 | Median MIC (Descriptive Statistics / Mann-Whitney) [1]: 0.2500 | Minimum MIC (Descriptive Statistics) [1]: 0.1250 | Maximum MIC (Descriptive Statistics) (Pseudomonas aeruginosa): 8 µg/mL | Mean MIC (Descriptive Statistics) (Pseudomonas aeruginosa): 3.54 µg/mL | Median MIC (Descriptive Statistics / Mann-Whitney) (Pseudomonas aeruginosa): 4.00 | Minimum MIC (Descriptive Statistics) (Pseudomonas aeruginosa): 0.5 µg/mL | Maximum MIC (Descriptive Statistics) (Serratia marcescens): 32 µg/mL | Mean MIC (Descriptive Statistics) (Serratia marcescens): 12.4 µg/mL | Median MIC (Descriptive Statistics / Mann-Whitney) (Serratia marcescens): 8.00 | Minimum MIC (Descriptive Statistics) (Serratia marcescens): 0.25 µg/mL | Maximum MIC (Descriptive Statistics) [2]: 1.0000 | Mean MIC (Descriptive Statistics) [2]: 0.3200 | Median MIC (Descriptive Statistics / Mann-Whitney) [2]: 0.2500 | Minimum MIC (Descriptive Statistics) [2]: 0.1250 | Maximum MIC (Descriptive Statistics) [3]: 0.2500 | Mean MIC (Descriptive Statistics) [3]: 0.1300 | Median MIC (Descriptive Statistics / Mann-Whitney) [3]: 0.125 | Minimum MIC (Descriptive Statistics) [3]: 0.0313 | Maximum MIC (Descriptive Statistics) [4]: 0.2500 | Mean MIC (Descriptive Statistics) [4]: 0.1388 | Median MIC (Descriptive Statistics / Mann-Whitney) [4]: 0.125 | Minimum MIC (Descriptive Statistics) [4]: 0.0313 | Minimum MIC [5]: 0.50 µg/mL | Maximum MIC [5]: 128.00 µg/mL | Mean MIC [5]: 21.42 µg/mL | Median MIC [5]: 4.00 µg/mL | Maximum MIC (Descriptive Statistics) (Streptococcus pneumoniae): 128 µg/mL | Mean MIC (Descriptive Statistics) (Streptococcus pneumoniae): 6.08 µg/mL | Median MIC (Descriptive Statistics / Mann-Whitney) (Streptococcus pneumoniae): 1.00 | Minimum MIC (Descriptive Statistics) (Streptococcus pneumoniae): 0.5 µg/mL | Maximum MIC (Descriptive Statistics) [6]: 32 µg/mL | Mean MIC (Descriptive Statistics) [6]: 5.84 µg/mL | Median MIC (Descriptive Statistics / Mann-Whitney) [6]: 4.00 | Minimum MIC (Descriptive Statistics) [6]: 1 µg/mL | Minimum MIC (Haemophilus influenzae): 2.00 µg/mL | Maximum MIC (Haemophilus influenzae): 32.00 µg/mL | Mean MIC (Haemophilus influenzae): 8.56 µg/mL | Median MIC (Haemophilus influenzae): 8.00 µg/mL

Reference: patent publication US20130065818A1, “Arylamide Compounds And Compositions And Uses Thereof” (POLYMEDIX, priority 2006, published 2013)
